From paper PMC6568278 (Chemical Science, 2019)

Assays:
Type in all cases: cell-based
rat aortic VSMCs = experiment: PDGF-induced VSMC proliferation; settings: PDGF-activated rat aortic VSMCs
NF-κB = settings: HEK-293/NF-κB-luc cells
human umbilical vein ECs = experiment: Endothelial cell; settings: 30 μM

SMILES | VSMC proliferation inhibition (in words) (rat aortic VSMCs) | NF-κB inhibition (in words) (NF-κB) | EC proliferation inhibition (in words) (human umbilical vein ECs)
COc1ccc(C[C@H]2CO[C@H](c3ccc(OC)c(OC)c3)[C@H]2COC(=O)CC(C)C)cc1OC [1c] | no effect | similarly strong inhibition to 1b | 
COc1ccc(C[C@H]2CO[C@H](c3ccc(OC)c(OC)c3)[C@H]2COC(=O)C=C(C)C)cc1OC [1b, ((2S,3R,4R)-4-(3,4-Dimethoxybenzyl)-2-(3,4-dimethoxyphenyl)tetrahydrofuran-3-yl)methyl 3-methylbut-2-enoate] | remained unaffected | much more suppressive effect | 
C/C=C(/C)C(=O)OC[C@H]1[C@@H](Cc2ccc(C(F)(F)F)cc2)CO[C@@H]1c1ccc(F)cc1 [1j, (Z)-((2S,3R,4R)-2-(4-Fluorophenyl)-4-(4-(trifluoromethyl)benzyl)tetrahydrofuran-3-yl)methyl 2-methylbut-2-enoate] |  | no inhibition | no inhibition
COc1ccc([C@H]2OC[C@H](Cc3ccc(C(C)(C)C)cc3)[C@@H]2CO)cc1OC [7b, ((2S,3R,4R)-4-(4-(tert-Butyl)benzyl)-2-(3,4-dimethoxyphenyl)tetrahydrofuran-3-yl)methanol] | much more active | inactive | 
